Laboratory results as given in PMC8126888 (RSC Medicinal Chemistry, 2020).
Where two headings read alike, the source gives them in different places.

Assays:
[1] = test system: Trypanosoma cruzi, Tulahuen CL2, beta-galactosidase strain; experiment: microbe, parasite or virus in culture; conditions: MRC5, read-out: T. cruzi Tulahuen C4 (LacZ) IC50
[2] = in vitro; conditions: Swiss, mouse
[3] = in vitro; conditions: human
[4] = test system: Leishmania infantum MHOM/MA(BE)/67/ITMAP263 intracellular amastigotes; experiment: microbe, parasite or virus in culture; conditions: Macrophage, in Mus musculus
[5] = test system: primary peritoneal mouse macrophages (PMM); conditions: for SI (vs PMM): PMM IC50 / L. infantum IC50; for IC50: read-out: PMM IC50
[6] = test system: MRC-5SV2 cells; experiment: Cytotoxicity assay on MRC-5SV2 cells (resazurin)
[7] = test system: Leishmania infantum MHOM/MA(BE)/67/ITMAP263 intracellular amastigotes; conditions: for IC50: read-out: L. infantum MHOM/MA(BE)/67/ITMAP263 intracellular amastigotes IC50
[8] = test system: L. donovani MHOM/ET/67/L82 intracellular amastigotes; conditions: read-out: L. donovani MHOM/ET/67/L82 intracellular amastigotes IC50
[9] = in vitro; conditions: human, microsomes, pH 7.4, HLM CLint, human liver microsomes
[10] = in vitro; conditions: mouse, microsomes, pH 7.4, MLM CLint, mouse liver microsomes
[11] = read-out: L. Inf. pIC50, from L. infantum intracellular amastigote IC50 (converted)
[12] = read-out: L. infantum MHOM/MA(BE)/67/ITMAP263 intracellular amastigotes IC50
[13] = from L. infantum intracellular amastigote IC50

SMILES | CC50 [6] | IC50 [5] | L. Inf. pIC50 [7] | IC50 [7] | IC50 [8] | also measured
CCC(Cc1ccccc1)S(=O)(=O)c1nc(C)cc(C)c1C#N (centres unmarked) [DNDI0003297459] | – | – | – | – | – | IC50 [1]: 45.2 µM; IC50 [2]: > 64 µM; CC50 at 3 days [3]: > 64 µM; IC50 [4, 11]: 20.4 µM; IC50 [4, 12]: 20.2 µM; SI (vs PMM) [5]: 3
CCc1c(C(=O)Nc2cc(S(=O)(=O)NC)ccc2C)[nH]c(C)c1C(C)=O [Compound Z792473370] | > 32 µM | > 32 µM | 4.67 | 21.5 µM | > 32 µM | –
CCCc1c(C(=O)Nc2cccc(S(=O)(=O)NCc3ccco3)c2)[nH]c(C)c1C(C)=O [Compound Z966334826] | 12.8 µM | > 32 µM | 4.84 | 14.5 µM | > 32 µM | –
COC(=O)c1cccc(C(=O)Nc2cccc(S(=O)(=O)N3CCCC3)c2)n1 [Compound Z441654950] | > 32 µM | > 32 µM | – | > 32 µM | > 32 µM | –
CN(C)S(=O)(=O)c1cccc(NC(=O)CN2CCCc3cc(F)cc(F)c32)c1 [Compound Z369155588] | > 32 µM | > 32 µM | – | > 32 µM | > 32 µM | –
CONS(=O)(=O)c1cc(Cl)ccc1OC [DNDI0003364475] | – | – | – | – | – | IC50 [1]: > 64 µM; IC50 [2]: > 64 µM; CC50 at 3 days [3]: > 64 µM; IC50 [4, 11]: > 64 µM; IC50 [4, 12]: > 64 µM; SI (vs PMM) [5]: 1
CCCCCOc1cc(C)c(Cl)cc1S(=O)(=O)NCc1ccco1 [Compound Z1172171148] | – | – | – | – | 4.76 µM | SI (vs PMM) [5]: 30; L. Inf. pIC50 [7, 13]: 5.97
CC(=O)Nc1ccc(S(=O)(=O)NCc2ccccc2)cc1 [DNDI0003366092] | – | – | – | – | – | IC50 [1]: > 64 µM; IC50 [2]: > 64 µM; CC50 at 3 days [3]: > 64 µM; IC50 [4, 11]: > 64 µM; IC50 [4, 12]: > 64 µM; SI (vs PMM) [5]: 1
CCCCOc1cc(C)c(Cl)cc1S(=O)(=O)NCc1cccnc1 [Compound Z969575790] | – | – | – | – | 25.4 µM | SI (vs PMM) [5]: 2; L. Inf. pIC50 [7, 13]: 4.78
CCN(CC)S(=O)(=O)c1cc(NC(=O)c2[nH]c(C)c(C(=O)OC)c2C)ccc1C [Compound Z26467494] | 10.9 µM | > 32 µM | 4.79 | 16.1 µM | 12 µM | –
CCCCNS(=O)(=O)c1cccc(NC(=O)c2ccc(C)c(OC)c2)c1 [Compound Z109591588] | > 32 µM | > 32 µM | – | > 32 µM | > 32 µM | –
CNC(=O)NC(=O)COc1ccc(S(N)(=O)=O)cc1 [Compound Z381095182] | > 32 µM | > 32 µM | – | > 32 µM | > 32 µM | –
CC1CCc2ccccc2N1CC(=O)Nc1ccc(Cl)c(S(=O)(=O)N(C)C)c1 (centres unmarked) [Compound Z46500410] | > 32 µM | > 32 µM | – | > 32 µM | > 32 µM | –
CCOC(=O)c1c(C)[nH]c(C(=O)NNC(=O)c2cccc(S(=O)(=O)N(CC)CC)c2)c1C [Compound Z30581529] | > 32 µM | > 32 µM | – | > 32 µM | > 32 µM | –
CC1Cc2ccccc2N1CC(=O)Nc1ccc(Cl)c(S(=O)(=O)N(C)C)c1 (centres unmarked) [Compound Z30956600] | > 32 µM | > 32 µM | – | > 32 µM | > 32 µM | –
COc1ccc(S(=O)(=O)N(C)C)cc1NC(=O)CN1C(=O)COc2ccccc21 [Compound Z29560624] | > 32 µM | > 32 µM | – | > 32 µM | > 32 µM | –
Cc1ccc(NC(=O)CN2CCCCc3ccccc32)cc1S(=O)(=O)N1CCOCC1 [Compound Z1318043362] | > 32 µM | 16 µM | 4.78 | 16.6 µM | 25.4 µM | –
COC(=O)c1c(C)[nH]c(C(=O)Nc2cccc(S(C)(=O)=O)c2)c1C [Compound Z109929482] | > 32 µM | > 32 µM | – | > 32 µM | > 32 µM | –
CCOc1ccc(NC(=O)c2[nH]c(C)c(C(=O)OC)c2C)cc1S(=O)(=O)N1CCCC1 [Compound Z29178369] | > 32 µM | > 32 µM | – | > 32 µM | > 32 µM | –
CC1CCc2ccccc2N1CC(=O)N1CCCc2cc(S(=O)(=O)N(C)C)ccc21 (centres unmarked) [Compound Z195652240] | > 32 µM | > 32 µM | – | > 32 µM | > 32 µM | –
CC/C(=C(\c1ccccc1)c1ccc(OCCN(C)C)cc1)c1ccccc1 [Tamoxifen, reference compound] | – | – | – | – | – | CC50 at 5 days [2]: 5 to 10 µM

SMILES | CC50 [6] | IC50 [5] | L. Inf. pIC50 [7] | IC50 [7] | IC50 [8] | also measured
CN(C)S(=O)(=O)c1cccc(NC(=O)CNc2cccc3c2CCCC3)c1 [Compound Z30985744] | > 32 µM | > 32 µM | – | > 32 µM | > 32 µM | –
CCCCNS(=O)(=O)c1cccc(NC(=O)c2cc(C)c(C)s2)c1 [Compound Z88584860] | > 32 µM | > 32 µM | – | > 32 µM | > 32 µM | –
COc1ccccc1S(=O)(=O)N(Cc1ccccc1)Cc1ccccc1 [Compound Z45508946] | > 32 µM | > 32 µM | 6.47 | 0.34 µM | 1.59 µM | –
COC(=O)c1c(C)[nH]c(C(=O)Nc2cccc(S(=O)(=O)N3CCCC3)c2)c1C [Compound Z30224758] | > 32 µM | > 32 µM | – | > 32 µM | > 32 µM | –
COc1ccc(OC)c(S(=O)(=O)N(Cc2ccccc2)Cc2ccccc2)c1 [Compound Z45508995] | 6.41 µM | > 32 µM | 6 | 1.01 µM | 1.19 µM | –
Cc1ccc(NC(=O)CN(CC(C)C)c2cccc(O)c2)cc1S(=O)(=O)N(C)C [Compound Z1317978681] | 28.4 µM | > 32 µM | 4.79 | 16.1 µM | 19 µM | –
O=S(=O)(NCc1cccs1)c1ccc2c(c1)CCCC2 [Compound Z45423905] | 27.1 µM | > 32 µM | – | > 32 µM | > 32 µM | –
CCOC(=O)c1c(C)[nH]c(C(=O)Nc2ccc(Cl)c(S(=O)(=O)N3CCCCC3)c2)c1C [Compound Z30461235] | 2.17 µM | 16 µM | 5.52 | 2.99 µM | 3.39 µM | –
CN(Cc1ccccc1NCC(=O)Nc1cccc(S(=O)(=O)N(C)C)c1)C1CCCCC1 [Compound Z31013342] | > 32 µM | > 32 µM | 4.67 | 21.5 µM | > 32 µM | –
CCCCNS(=O)(=O)c1cccc(NC(=O)c2cc3ccccc3[nH]2)c1 [Compound Z88584859] | > 32 µM | > 32 µM | 4.79 | 16.2 µM | 25.4 µM | –
CCOC(=O)c1c(C)[nH]c(C(=O)Nc2cccc(S(=O)(=O)N3CCOCC3)c2)c1C [Compound Z30001211] | 18.1 µM | > 32 µM | – | > 32 µM | > 32 µM | –
Fc1cccc(Cl)c1CNc1ccccc1-n1cccn1 [Compound Z739504072] | > 32 µM | > 32 µM | – | > 32 µM | > 32 µM | –
COc1ccc(Cl)cc1S(=O)(=O)N(Cc1ccccc1)Cc1ccccc1 [DNDI0003366072] | – | – | – | – | – | IC50 [1]: 8.16 µM; IC50 [2]: > 64 µM; microsomal CLint at 0.5 μM [9]: 407 µL/min/mg; microsomal CLint at 0.5 μM [10]: 1350 µL/min/mg; CC50 at 3 days [3]: > 64 µM; IC50 [4, 11]: 1.38 µM; IC50 [4, 12]: 1.37 µM
CCCOc1cc(C)c(C)cc1S(=O)(=O)NC1CCCC1 [Compound Z1197866122] | – | – | – | – | > 32 µM | SI (vs PMM) [5]: 1
CCCCNS(=O)(=O)c1cccc(NC(=O)c2cnc(C)cn2)c1 [Compound Z88583029] | > 32 µM | > 32 µM | – | > 32 µM | > 32 µM | –
CCCCOc1cc(C)c(Cl)cc1S(=O)(=O)NCc1cccs1 [Compound Z1198037505] | – | – | – | – | 5.38 µM | SI (vs PMM) [5]: 41; L. Inf. pIC50 [7, 13]: 6.1
COc1ccc(S(=O)(=O)N(Cc2ccccc2C#N)Cc2ccccc2C#N)cc1OC [Compound Z220633250] | > 32 µM | > 32 µM | 5.32 | 4.76 µM | > 32 µM | –
COc1ccc(S(=O)(=O)N(Cc2cccc(F)c2)Cc2cccc(F)c2)cc1OC [Compound Z220633200] | > 32 µM | > 32 µM | 4.99 | 10.1 µM | 25.4 µM | –
COc1ccc(S(=O)(=O)N(C)C)cc1NC(=O)C1CCCc2ccccc21 (centres unmarked) [Compound Z300980532] | > 32 µM | > 32 µM | – | > 32 µM | > 32 µM | –
COc1ccc(S(=O)(=O)N(C)C)cc1NC(=O)Cn1c(=O)cnc2ccccc21 [Compound Z19025005] | > 32 µM | > 32 µM | – | > 32 µM | > 32 µM | –
Cc1ccc(NC(=O)c2[nH]c(C)c(C(=O)OC(C)C)c2C)cc1S(=O)(=O)N1CCCCC1 [Compound Z51733284] | 3.11 µM | 16 µM | 4.99 | 10.2 µM | 16.2 µM | –
